Data published in ChEMBL document CHEMBL2375358, “Substituted thieno[2,3-d]pyrimidines as adenosine A2A receptor antagonists” (Bioorg Med Chem Lett, 2013).
Active and inactive are the calls of the source. No cut-off for these calls is given here.

What was measured:
Mus musculus [1] = test: Antiparkinsonian activity in po dosed mouse assessed as reversal of haloperidol-induced catalepsy after 1 hr; type: functional
Mus musculus [2] = test: Antiparkinsonian activity in mouse assessed as reversal of haloperidol-induced catalepsy at 3 mg/kg, po after 1 hr; type: functional, organism-based; parameters: dose 3 mg/kg
Adenosine receptor A1 = biological target: T1, Adenosine receptor A1 (Homo sapiens, UniProt P30542); test: Antagonist activity at human adenosine A1 receptor expressed in CHOK1 cells assessed as inhibition of R-PIA/forskolin-induced cAMP accumulation incubated for 15 mins prior to R-PIA/forskolin challenge measured after 5.5 to 6 hrs by beta-galactosidase reporter gene assay; type: functional, cell-based, CHO-K1
T1 sequence (P30542 whole entry): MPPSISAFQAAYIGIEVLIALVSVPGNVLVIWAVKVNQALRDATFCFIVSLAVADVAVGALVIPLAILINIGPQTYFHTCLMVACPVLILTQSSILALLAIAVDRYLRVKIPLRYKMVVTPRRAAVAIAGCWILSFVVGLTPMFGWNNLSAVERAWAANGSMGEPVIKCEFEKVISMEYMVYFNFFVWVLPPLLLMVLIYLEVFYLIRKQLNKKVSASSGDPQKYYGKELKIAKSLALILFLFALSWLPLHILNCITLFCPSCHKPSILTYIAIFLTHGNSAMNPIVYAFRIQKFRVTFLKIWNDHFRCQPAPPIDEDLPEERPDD

Adenosine receptor A2a = Adenosine receptor A2a (Homo sapiens, UniProt P29274); test: Antagonist activity at human adenosine A2a receptor expressed in CHOK1 cells assessed as inhibition of NECA/forskolin-induced cAMP accumulation incubated for 15 mins prior to NECA/forskolin challenge measured after 5.5 to 6 hrs by beta-galactosidase reporter gene assay; type: functional, cell-based, CHO-K1
Adenosine receptor A2a, sequence (P29274 whole entry): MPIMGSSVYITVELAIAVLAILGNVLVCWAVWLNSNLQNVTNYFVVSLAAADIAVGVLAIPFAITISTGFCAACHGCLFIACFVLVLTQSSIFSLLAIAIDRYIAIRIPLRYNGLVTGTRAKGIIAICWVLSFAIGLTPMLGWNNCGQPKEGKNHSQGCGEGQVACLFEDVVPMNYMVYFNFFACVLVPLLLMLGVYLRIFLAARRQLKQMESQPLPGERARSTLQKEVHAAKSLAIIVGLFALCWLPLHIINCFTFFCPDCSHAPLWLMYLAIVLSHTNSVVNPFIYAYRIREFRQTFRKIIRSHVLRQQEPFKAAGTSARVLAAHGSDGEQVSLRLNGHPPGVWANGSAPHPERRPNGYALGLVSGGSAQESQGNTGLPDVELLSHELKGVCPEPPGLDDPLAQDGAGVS

Mus musculus [3] = test: Antiparkinsonian activity in mouse assessed as reversal of haloperidol-induced catalepsy at 10 mg/kg, po after 1 hr; type: functional, organism-based; parameters: dose 10 mg/kg
[4] = Ratio of drug level in brain to plasma in rat at 2 mg/kg, iv and 10 mg/kg, po measured at 1 hr; type: ADME, organism-based; conditions: read-out: BPR
[5] = Oral bioavailability in rat at 10 mg/kg; type: ADME, organism-based; conditions: in vivo
[6] = Cmax in rat at 10 mg/kg, po; type: ADME, organism-based; parameters: dose 10 mg/kg, route oral; conditions: in vivo
[7] = Half life in rat at 10 mg/kg, po; type: ADME, organism-based; parameters: dose 10 mg/kg, route oral; conditions: in vivo
[8] = Clearance in rat at 2 mg/kg, iv and 10 mg/kg, po; type: ADME, organism-based; conditions: in vivo
[9] = Oral bioavailability in mouse at 10 mg/kg; type: ADME, organism-based; conditions: in vivo
[10] = Cmax in mouse at 10 mg/kg, po; type: ADME, organism-based; parameters: dose 10 mg/kg, route oral; conditions: in vivo
[11] = Half life in mouse at 10 mg/kg, po; type: ADME, organism-based; parameters: dose 10 mg/kg, route oral; conditions: in vivo
[12] = Clearance in mouse at 5 mg/kg, iv and 10 mg/kg, po; type: ADME, organism-based; conditions: in vivo
Mus musculus [13] = test: Antiparkinsonian activity in mouse assessed as reversal of haloperidol-induced catalepsy at 10 mg/kg, po after 2 to 4 hrs; type: functional, organism-based; parameters: dose 10 mg/kg

Ki (Adenosine receptor A1) [nM] | Ki (Adenosine receptor A2a) [nM] | SMILES | other results
222 | 11.4 | N#Cc1cccc(-c2nc(N)c3cc(Cc4ccccc4)sc3n2)c1 | ED50 (Mus musculus [1]): < 1 mg/kg; Activity (Mus musculus [2]): Active
122 | 11 | COc1ccccc1Cc1cc2c(N)nc(-c3ccc(C)o3)nc2s1 | ED50 (Mus musculus [1]): 0.8 mg/kg; Activity (Mus musculus [3]): Active
439 | 40.1 | Cc1ccc(-c2nc(N)c3cc(C(C)c4ccccc4)sc3n2)o1 (configuration not stated) | –
283 | 168 | CC(C)c1ccc(-c2nc(N)c3cc(Cc4ccccc4)sc3n2)o1 | –
26.1 | 2.9 | Cc1ccc(-c2nc(N)c3cc(Cc4ccccc4Cl)sc3n2)o1 | –
– | 203 | Cc1ccc(-c2nc(N)c3cc(CCc4ccccc4)sc3n2)o1 | –
3710 | 594 | Nc1nc(-c2ccccn2)nc2sc(Cc3ccccc3)cc12 | –
520 | 67.3 | Cc1ccc(-c2nc(N)c3cc(-c4ccccc4)sc3n2)o1 | –
151 | 29.8 | Nc1nc(-c2ccccc2)nc2sc(Cc3ccccc3)cc12 | –
812 | 67.3 | Nc1nc(-c2ccncc2)nc2sc(Cc3ccccc3)cc12 | –
– | > 1000 | Nc1nc(-c2ccccc2)nc2sc(CCc3ccccc3)cc12 | –
298 | – | Cc1ccc(-c2nc(N)c3cc(Cc4ccccc4)sc3n2)o1 | Kp at 1 h [4]: 1.2; bioavailability [5]: 83%; Cmax [6]: 2.98 µM; half-life [7]: 42 min; clearance [8]: 65 mL/min/kg; bioavailability [9]: 5%; Cmax [10]: 5.01 µM; half-life [11]: 18 min; clearance [12]: 69 mL/min/kg; Activity (Mus musculus [13]): inactive; ED50 (Mus musculus [1]): 2.2 mg/kg; Activity (Mus musculus [3]): Active
106 | 9 | Nc1nc(-c2cnco2)nc2sc(Cc3ccccc3)cc12 | Activity (Mus musculus [2]): inactive
– | 17.1 | Nc1nc(-c2ncccn2)nc2sc(Cc3ccccc3)cc12 | –
310 | 4.7 | Nc1nc(-c2ncco2)nc2sc(Cc3ccccc3)cc12 | Activity (Mus musculus [2]): inactive
< 16 | 3.7 | Cc1ccc(-c2nc(N)c3cc(Cc4ccccc4F)sc3n2)o1 | –
> 1000 | 173 | Nc1nc(-c2cccc(Cl)n2)nc2sc(Cc3ccccc3)cc12 | –
> 1000 | 26 | N#Cc1cccc(-c2nc(N)c3cc(Cc4ccccc4)sc3n2)n1 | –

More lines, now with the values behind:

SMILES | Ki (Adenosine receptor A1) [nM] | Ki (Adenosine receptor A2a) [nM] | other results
N#Cc1cncc(-c2nc(N)c3cc(Cc4ccccc4)sc3n2)c1 | 1160 | > 168 | –
Nc1nc(C2CCCO2)nc2sc(Cc3ccccc3)cc12 (configuration not stated) | 2950 | 683 | –
Cc1ccc(-c2nc(N)c3ccsc3n2)o1 | 493 | 109 | –
Cc1csc(-c2nc(N)c3cc(C4(c5ccccc5)CC4)sc3n2)n1 | > 610 | – | –
Nc1nc(-c2ccccc2)nc2sccc12 | – | 500 | –
N#Cc1cccc(-c2nc(N)c3cc(Cc4ccccc4F)sc3n2)c1 | < 16 | 7.3 | –
N#Cc1cccc(-c2nc(N)c3cc(C4(c5ccccc5)CC4)sc3n2)c1 | > 610 | – | –
Cc1csc(-c2nc(N)c3cc(C(C)c4ccccc4)sc3n2)n1 (configuration not stated) | 1420 | 100 | –
Cc1csc(-c2nc(N)c3cc(Cc4ccccc4F)sc3n2)n1 | 28.6 | 9.7 | –
Nc1nc(-c2ccccc2)nc2sc(-c3ccccc3)cc12 | 237 | 207 | –
C=C(c1ccccc1)c1cc2c(N)nc(-c3cccc(C#N)c3)nc2s1 | > 1000 | – | –
CC(c1ccccc1)c1cc2c(N)nc(-c3cccc(C#N)c3)nc2s1 (configuration not stated) | 1770 | 340 | –
C=C(c1ccccc1)c1cc2c(N)nc(-c3nc(C)cs3)nc2s1 | > 594 | – | –
Nc1nc(-c2cccc(C(F)(F)F)c2)nc2sc(Cc3ccccc3)cc12 | > 1000 | – | –
Cc1csc(-c2nc(N)c3cc(Cc4ccccc4)sc3n2)n1 | – | – | Activity (Mus musculus [3]): inactive
Cc1csc(-c2nc(N)c3cc(Cc4ccccc4Cl)sc3n2)n1 | 49.6 | 6.9 | –
N#Cc1cccc(-c2nc(N)c3cc(Cc4ccccc4Cl)sc3n2)c1 | 24.8 | 1.4 | –
